According to patent US10947213B1 (Merck Patent GmbH, priority 2015, dated 2021):

What follows are compounds tested against T1, TLR7/NFKb HEK cells (Homo sapiens, UniProt Q9NYK1) (assay: HEK Cell Assay (TLR7/NFKb reporter, Steady-Glo luciferase readout)). Details: 30 min compound preincubation, then R*48 agonist for 5 hours, read-out: Potency.
T1 construct: expressed in transfected cells; host or cells: HEK cells (TLR7/NFKb reporter line)
T1 sequence (Q9NYK1 27-1049): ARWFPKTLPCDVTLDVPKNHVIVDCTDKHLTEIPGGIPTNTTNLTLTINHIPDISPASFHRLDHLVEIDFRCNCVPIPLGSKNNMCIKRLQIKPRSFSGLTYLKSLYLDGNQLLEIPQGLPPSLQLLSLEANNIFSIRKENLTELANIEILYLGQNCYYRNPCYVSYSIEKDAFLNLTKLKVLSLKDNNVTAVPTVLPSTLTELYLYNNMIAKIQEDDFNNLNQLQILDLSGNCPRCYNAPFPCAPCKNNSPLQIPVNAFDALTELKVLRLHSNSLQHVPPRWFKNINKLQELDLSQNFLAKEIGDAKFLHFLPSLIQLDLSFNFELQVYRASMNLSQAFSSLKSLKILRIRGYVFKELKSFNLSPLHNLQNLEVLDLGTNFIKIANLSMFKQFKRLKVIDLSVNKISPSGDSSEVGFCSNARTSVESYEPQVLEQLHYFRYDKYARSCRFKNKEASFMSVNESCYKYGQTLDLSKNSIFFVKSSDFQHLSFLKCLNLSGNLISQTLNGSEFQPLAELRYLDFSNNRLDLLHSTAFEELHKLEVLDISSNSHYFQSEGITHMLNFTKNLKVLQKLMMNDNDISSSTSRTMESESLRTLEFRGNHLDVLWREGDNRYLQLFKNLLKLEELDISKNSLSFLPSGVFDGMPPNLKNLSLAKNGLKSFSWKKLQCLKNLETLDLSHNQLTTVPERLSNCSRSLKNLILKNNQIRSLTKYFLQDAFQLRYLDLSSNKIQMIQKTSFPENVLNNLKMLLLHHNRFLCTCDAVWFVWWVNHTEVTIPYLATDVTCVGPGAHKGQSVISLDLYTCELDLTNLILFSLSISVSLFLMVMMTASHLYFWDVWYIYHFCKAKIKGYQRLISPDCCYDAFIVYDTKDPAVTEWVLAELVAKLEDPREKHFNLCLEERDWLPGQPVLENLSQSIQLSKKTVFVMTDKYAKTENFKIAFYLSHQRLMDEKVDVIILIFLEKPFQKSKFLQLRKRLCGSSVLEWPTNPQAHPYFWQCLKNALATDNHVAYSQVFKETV
Type: cell-based
How it was run: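 Steady-Glo luminescence after 5 h stimulation with R*48 agonist, following 30 min compound preincubation. Assay run in HEK cells carrying a TLR7/NFKb luciferase reporter, plated at 5000 cells/well and grown 24 h at 37° C (10% CO2) before treatment.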

Row | SMILES | IC50
1 | C[C@H]1C[C@@H](NC(=O)C(N)C(F)(F)F)CN(c2ccc(C(F)F)c3ncccc23)C1 (single isomer, unassigned) [Compound 207] | 1000 to 10000 nM
2 | CC(C(=O)N[C@@H]1C[C@H](C)CN(c2ccc(C(F)(F)F)c3ncccc23)C1)N1CCN(C)CC1 (stereo partly drawn) [Compound 516, 2-(4-Methyl-piperazin-1-yl)-N-[(3R,5S)-5-methyl-1-(8-trifluoromethyl-quinolin-5-yl)-piperidin-3-yl]-propionamide] | < 1000 nM
3 | N#Cc1ccc(N2CC(N)CC(F)(F)C2)c2nccnc12 (single isomer, unassigned) [Compound 76] | 1000 to 10000 nM
4 | O=C(NCC1CCN(c2ccnc3nccnc23)CC1)c1ccccn1 [Compound 392, Pyridine-2-carboxylic acid (1-pyrido[2,3-b]pyrazin-8-yl-piperidin-4-ylmethyl)-amide] | > 10000 nM
5 | C[C@H]1C[C@@H](NC(=O)CN2CCCN(C)CC2)CN(c2ccc(C#N)c3nccnc23)C1 [Compound 276, N-[(3R,5S)-1-(8-cyanoquinoxalin-5-yl)-5-methylpiperidin-3-yl]-2-(4-methyl-1,4-diazepan-1-yl)acetamide] | < 1000 nM
6 | C[C@H]1C[C@@H](N)CN(c2ccc(C#N)c3ncncc23)C1 [Compound 74, 5-((3R,5S)-3-Amino-5-methyl-piperidin-1-yl)-quinazoline-8-carbonitrile] | < 1000 nM
7 | COc1ccc(N2C[C@@H](C)C[C@@H](NC(=O)[C@@H](O)C(C)C)C2)c2cccnc12 [Compound 188, (2S)-2-hydroxy-N-[(3R,5S)-1-(8-methoxyquinolin-5-yl)-5-methylpiperidin-3-yl]-3-methylbutanamide] | < 1000 nM
8 | C[C@H]1C[C@@H](NC(=O)C2(C)COC2)CN(c2ccc(C#N)c3nccnc23)C1 [Compound 36, N-((3R,5S)-1-(8-cyanoquinoxalin-5-yl)-5-methylpiperidin-3-yl)-3-methyloxetane-3-carboxamide] | 1000 to 10000 nM
9 | C[C@@H]1C[C@H](C(=O)NCCN2CCN(C)CC2)CN(c2ccc(C#N)c3nccnc23)C1 (relative stereo) [Compound 537, cis-1-(8-Cyano-quinoxalin-5-yl)-5-methyl-piperidine-3-carboxylic acid [2-(4-methyl-piperazin-1-yl)-ethyl]-amide] | < 1000 nM
10 | CNC(=O)CN[C@@H]1C[C@H](C)CN(c2ccc(C(F)(F)F)c3ncccc23)C1 [Compound 569] | < 1000 nM
11 | N#Cc1ccc(N2C[C@H](NCCC(F)(F)F)C[C@H](C(F)(F)F)C2)c2nccnc12 (relative stereo) [Compound 95, cis-8-[3-(trifluoromethyl)-5-[(3,3,3-trifluoropropyl)amino]piperidin-1-yl]quinoxaline-5-carbonitrile] | 1000 to 10000 nM
12 | C[C@H]1C[C@@H](NC(=O)C(N)C(F)(F)F)CN(c2ccc(C(F)(F)F)c3ncccc23)C1 (single isomer, unassigned) [Compound 197] | 1000 to 10000 nM
13 | C[C@H]1C[C@@H](NC(=O)CC2CN(C)C2)CN(c2ccc(C(F)F)c3ncccc23)C1 [Compound 364, N-[(3R,5S)-1-[8-(difluoromethyl)quinolin-5-yl]-5-methylpiperidin-3-yl]-2-(1-methylazetidin-3-yl)acetamide] | < 1000 nM
14 | C[C@H]1C[C@@H](NC(=O)CC2CNC2)CN(c2ccc(C(F)(F)F)c3ncccc23)C1 [Compound 288, 2-(azetidin-3-yl)-N-[(3R,5S)-5-methyl-1-[8-(trifluoromethyl)quinolin-5-yl]piperidin-3-yl]acetamide] | < 1000 nM
15 | CN1CCC(CC(=O)N[C@H]2C[C@@H](C(F)(F)F)CN(c3ccc(C#N)c4ncccc34)C2)CC1 (relative stereo) [Compound 478, cis-N-[1-(8-Cyano-quinolin-5-yl)-5-trifluoromethyl-piperidin-3-yl]-2-(1-methyl-piperidin-4-yl)-acetamide] | < 1000 nM
16 | CC1CC(CN2CCN(C)CC2)CN(c2ccc(C(F)(F)F)c3ncccc23)C1 (single isomer, unassigned) [Compound 534, trans-5-[3-Methyl-5-(4-methyl-piperazin-1-ylmethyl)-piperidin-1-yl]-8-trifluoromethyl-quinoline] | 1000 to 10000 nM
17 | CN(C)CC(=O)NC1CN(c2ccc(C#N)c3ncccc23)CC(F)(F)C1 (centres unmarked) [Compound 425, N-[1-(8-Cyano-quinolin-5-yl)-5,5-difluoro-piperidin-3-yl]-2-dimethylamino-acetamide] | < 1000 nM
18 | COc1ccc(N2C[C@@H](C)C[C@@H](NC(=O)C(O)C(C)C)C2)c2nccnc12 (stereo in doubt) [Compound 201, (2R)-2-hydroxy-N-[(3R,5S)-1-(8-methoxyquinoxalin-5-yl)-5 methylpiperidin-3-yl]-3-methylbutanamide] | 1000 to 10000 nM

Row | SMILES | IC50
19 | Cc1ncc(N2C[C@@H](C)C[C@@H](NC(=O)CC3CCN(C)C3)C2)c2cccnc12 (stereo partly drawn) [Compound 560, N-[(3R,5S)-5-Methyl-1-(8-methyl-[1,7]naphthyridin-5-yl)-piperidin-3-yl]-2-(1-methyl-pyrrolidin-3-yl)-acetamide] | < 1000 nM
20 | C[C@H]1C[C@@H](NC(=O)C(N)C(F)(F)F)CN(c2c(F)cc(C#N)c3nccnc23)C1 (single isomer, unassigned) [Compound 345] | > 10000 nM
21 | N#Cc1ccc(N2CC(NC(=O)CCC(=O)N3CCC3)CC(C(F)(F)F)C2)c2cccnc12 (single isomer, unassigned) [Compound 494] | > 10000 nM
22 | CC(C)[C@H](O)C(=O)NC1CC(C(F)(F)F)CN(c2ccc(C#N)c3nccnc23)C1 (single isomer, unassigned) [Compound 88] | < 1000 nM
23 | COC(C)C(=O)N[C@@H]1C[C@H](C)CN(c2ccnc3nccnc23)C1 (single isomer, unassigned) [Compound 161] | > 10000 nM
24 | C[C@H]1C[C@@H](N)CN(c2ccc(C(N)=O)c3ncccc23)C1 [Compound 180, 5-[(3R,5S)-3-amino-5-methylpiperidin-1-yl]quinoline-8-carboxamide] | < 1000 nM
25 | COc1ccc(C(=O)NCC2CCN(c3ccnc4nccnc34)CC2)cc1OC [Compound 391, 3,4-Dimethoxy-N-(1-pyrido[2,3-b]pyrazin-8-yl-piperidin-4-ylmethyl)-benzamide] | > 10000 nM
26 | COc1ccc(N2C[C@@H](C)C[C@@H](NC(=O)C(N)C(F)(F)F)C2)c2cccnc12 (single isomer, unassigned) [Compound 192] | 1000 to 10000 nM
27 | C[C@H]1C[C@@H](NC(=O)CO)CN(c2ccnc3ccccc23)C1 [Compound 14, 2-hydroxy-N-((3R,5S)-5-methyl-1-(quinolin-4-yl)piperidin-3-yl)acetamide] | > 10000 nM
28 | C[C@H]1C[C@@H](NC(=O)C2(CO)CC2)CN(c2ccc(C#N)c3nccnc23)C1 [Compound 162, N-[(3R,5S)-1-(8-cyanoquinoxalin-5-yl)-5-methylpiperidin-3-yl]-1-(hydroxymethyl)cyclopropane-1-carboxamide] | 1000 to 10000 nM
29 | C[C@H]1C[C@@H](NC(=O)CO)CN(c2ccnc3nccnc23)C1 [Compound 15, 2-hydroxy-N-((3R,5S)-5-methyl-1-(pyrido[2,3-b]pyrazin-8-yl)piperidin-3-yl)acetamide] | > 10000 nM
30 | c1ccc2c(N3CCC(COCCN4CCCCC4)CC3)ccnc2c1 [Compound 6, 4-(4-[[2-(piperidin-1-yl)ethoxy]methyl]piperidin-1-yl)quinoline] | 1000 to 10000 nM
31 | C[C@@H]1CN(c2ccnc3nccnc23)C[C@H](C(=O)N[C@@H]2CCCNC2)O1 [Compound 64, (2R,6R)-6-methyl-N—((R)-piperidin-3-yl)-4-(pyrido[2,3-b]pyrazin-8-yl)morpholine-2-carboxamide] | 1000 to 10000 nM
32 | Cc1ncc(N2C[C@@H](C)C[C@@H](NC(=O)[C@@H](N)C3CC3)C2)c2cccnc12 [Compound 562, (S)-2-Amino-2-cyclopropyl-N-[(3R,5S)-5-methyl-1-(8-methyl-[1,7]naphthyridin-5-yl)-piperidin-3-yl]-acetamide] | < 1000 nM
33 | C[C@@H]1C[C@H](O)CN(c2ccc(C(F)(F)F)c3ncccc23)C1 (racemic) [Compound 461, cis-5-Methyl-1-(8-trifluoromethyl-quinolin-5-yl)-piperidin-3-ol] | < 1000 nM
34 | C[C@H]1C[C@@H](NC(=O)CC(C)(C)C)CN(c2ccc(C#N)c3nccnc23)C1 [Compound 40, N-((3R,5S)-1-(8-cyanoquinoxalin-5-yl)-5-methylpiperidin-3-yl)-3,3-dimethylbutanamide] | < 1000 nM
35 | N#Cc1ccc(N2CC(N)CC(C(F)(F)F)C2)c2nccnc12 (single isomer, unassigned) [Compound 83] | < 1000 nM
